From patent publication US20260327263A1, “Anti-Bacterial Peptides” (priority 2023, published 2026) come the findings set out here.

Several values for one entry are separate records, joined by “and”; a condition that tells them apart may be missing. Identical values can stand only once. Entries after “also recorded” stand apart in the source; their conditions may differ. Where no end group is shown, it is not given here.

Series [1] concerns Staphylococcus aureus (SA). Description: Time-kill assay, Staphylococcus aureus. The series is classed as cell-based. The conditions noted are these: for Time kill SA, >99% killing: at 1X MBC, * indicates killing within seconds. On the procedure:
(§1) The bactericidal abilities of the variant peptides are not only effective, but also fast-acting. […] The killing kinetics are detailed in Table 11 below.
(§2) Pseudomonas aeruginosa (PA) and Staphylococcus aureus (SA) strains were grown as per CLSI guidelines. AMPs were added to the bacterial cultures at their 1X MBC concentrations. Upon treatment, the bacterial cultures were enumerated for viable counts immediately within 1 min, 5 min, 15 min, 30 min and 60 min post-treatments.

Series [2] deals with Staphylococcus aureus (SA). Nature of the series: Broth microdilution anti-bacterial assay (CLSI), Staphylococcus aureus. The series is classed as cell-based. The conditions noted are these: SA; for MIC: overnight, 37° C., ≥99% inhibition; for MBC: ≥99% killing. On the technique in general: In broth dilution the organism is exposed to a series of concentrations in liquid medium.

The test system of a further series is human keratinocytes. Nature of the series: 2D scratch assay, keratinocyte migration. The format is cell-based. On the procedure: Wound healing is directly associated with the migration speed of keratinocytes. The migration speed of human keratinocytes in presence of E1AM2, V8L (SEQ ID NO: 19), and Q19L variants is tested in comparison with pexiganan (SEQ ID NO: 54). Migration speed of human keratinocytes assessed in a 2D scratch assay at D 0 and D 2 timepoints. Decrease in wound area over time was measured by applying an ImageJ plugin ‘Wound Healing Size Tool’ on bright-field images. The change in wound area over the course of 48 hours was used as a measure of the migration speed of keratinocytes. Each value is the mean±SD (n=3). The p-value was calculated using ANOVA for multiple comparisons (Dunnett's multiple comparisons test). **** p<0.0001. *** p<0.001. ** p <0.01. * p<0.05. […] Both peptides healed wound faster within their respective MIC and MBC concentrations. […] SEQ ID NO: 27=Q19L; SEQ ID NO: 2=E1AM2; SEQ ID NO: 19=V8L.
(§3) Wound closure was compared with the untreated samples (circle, red highlight). For improved clarity, error bars have been omitted from this representation. […] Each value is the mean±SD (n=3). Statistical significance was assessed using ANOVA for multiple comparisons (Dunnett's multiple comparisons test). **** p<0.0001, *** p<0.001, ** p<0.01, *p<0.05, ns denotes nonsignificance, p >0.05.
Wound areas of the human keratinocyte culture were assessed in presence of peptides in a 2D scratch assay at the 0 hour, and 48-hour time points by applying an ImageJ plugin, ‘Wound Healing Size Tool’ on brightfield images. Quantification of wound width was calculated by obtaining the averaged Euclidean distance between each paired pixel at the lateral wound edges. The change in wound area over the course of 48 hours was used as a measure of the migration speed of keratinocytes.
Using the inverted BioTek Lionheart LX Automated Microscope, brightfield images were obtained at 4× magnification to observe the wound area at timepoints 0 (before treatment) and 48 hours-post treatment. Microscopy settings were maintained as focus offset (781.3 μm), illumination (2), integration Time (21) with no gain. To cover the entire well, montage images of four rows by three columns were stitched together by enabling the “image stitching” function and images were saved in tiff-format.

Series [3] has as its system Pseudomonas aeruginosa PA BAA-2110. Nature of the series: Broth microdilution, PA BAA-2110 (lung infection in cystic fibrosis). The conditions noted are these: PA BAA-2110. The series is classed as cell-based, Pseudomonas aeruginosa (BAA-2110). As for the experimental part: (§4) Bacteria strains involved in lung infection in cystic fibrosis patients (PA-BAA 2110) and ear-eye infections (PA-CRM 9027) are treated with exemplary variant peptides, such as E1AM2 and Q19L.
(§5) Examination of the potency of modified short peptides against PA and SA strains was performed by using the broth microdilution protocol from the Clinical and Laboratory Standards Institute (CLSI) guidelines (CLSI 2012) as described. Briefly, five freshly plated bacteria colonies were grown in cation adjusted MH2 broth (BD Biosciences) in a shaker incubator at 37° C., 220 RPM. Cells were grown to an optical density (OD600) of ~0.2 measured using a Microplate Spectrophotometer (Molecular Devices Spectra Max Plus). 100 μL of microbial culture containing ~5×10^5 CFU/mL of bacteria in the respective broths were introduced into each well containing 100 μL of peptides and incubated overnight at 37° C. Next, to check the bactericidal effects, 100 μL from each well was transferred and spread on sterile MH2 agar plates. The plates were incubated overnight at 37° C. and the number of colonies forming units (CFU) were calculated the following day. Readings of bacteria grown in media without any treatments were normalized to 100% as media control. For the mixed infection study, three freshly plated bacteria colonies each from PA, SA and ST plates were grown together in cation adjusted MH2 broth and proceeded as described above.

Series [4] has as its system Pseudomonas aeruginosa (PA). Description: Antimicrobial resistance evolution assay, PA. The format is cell-based. The conditions noted are these: for development of antimicrobial resistance, PA: serial passaging, 28 days, resistance = >4-fold MIC change. The text has this: (§6) The development of antimicrobial resistance is defined by greater than a 4-fold change to their initial minimum inhibitory concentration (MIC) at day 1. Exemplary bacteria strains Pseudomonas aeruginosa (PA) and Staphylococcus aureus (SA) are subjected to continuous daily serial passaging over several days, with treatment of exemplary variant peptides E1AM2 (SEQ ID NO: 2) and Q19L (SEQ ID NO: […]) at subinhibitory concentrations. […] The treatments were discontinued when the MIC increased by more than four-fold from the initial MIC or when MIC reached >100 μM.
(§7) Briefly, sequential passaging of PA, and SA cells was done with sub-inhibitory concentrations of antibiotics or E1AM2 up to 4 weeks. The cells grown in those concentrations of antibiotics or peptides were diluted to A600 nm (OD600) of ~0.2 and serially passaged daily with the same concentrations at 37° C. with agitation at 24 h intervals.

Series [5] has as its system Pseudomonas aeruginosa (PA). Nature of the series: Broth microdilution anti-bacterial assay (CLSI), Pseudomonas aeruginosa. The conditions noted are these: for anti-bacterial activity (in words): PA and SA; for MIC / MBC: PA; for MIC: overnight, 37° C., ≥99% inhibition; for MBC: ≥99% killing. The series is classed as cell-based, Pseudomonas aeruginosa (ATCC 14213).
Series [6] deals with Pseudomonas aeruginosa (PA). Description: Time-kill assay, Pseudomonas aeruginosa. The conditions noted are these: for time to kill PA (in words): 1X MBC; for Time kill PA, >99% killing: at 1X MBC, * indicates killing within seconds. The format is cell-based. As for the experimental part:
as §1, §2

For series [7], the system named is Staphylococcus aureus (SA). Nature of the series: Antimicrobial resistance evolution assay, SA. The format is cell-based. The conditions noted are these: serial passaging; resistance = >4-fold MIC change.
Text: as §6, §7

Series [8] concerns Pseudomonas aeruginosa PA CRM-9027. Nature of the series: Broth microdilution, PA CRM-9027 (ear-eye infections). The series is classed as cell-based, Pseudomonas aeruginosa (CRM-9027). The conditions noted are these: PA CRM-9027. As for the experimental part:
as §4, §5

Series [9] can be described thus: Comparison of AMPs in clinical trial with V8LQ19L (Table 13). The conditions noted are these: ✓ / X.
In series [10] the test system is human red blood cells (hRBCs). Nature of the series: Hemolysis assay. The conditions noted are these: hRBCs; for minimum concentration corresponding to 10% hemolysis (HC): 37° C., 30 min; for hemolysis (in words): FIG. 8 up to 100 μM. The format is cell-based. On the procedure:
(§8) The hemolytic score of the peptide variants and pexiganan (SEQ ID NO: 54) are compared to a strong hemolytic peptide, melittin 12 as a control. […] The minimum peptide concentration corresponding to 10% hemolysis (minimal hemolysis concentration, HC) of E1AM2=50 μM, V8LQ19L=12.5 μM, V8LQ19L C-2=3.125 μM, and pexiganan=12.5 μM respectively. Readings of the melittin at 3.125 μM were normalised to 100%.
(§9) Examination of hemolytic activity of ultra-short peptides was performed by isolating the red blood cells (RBCs) from human blood samples by centrifugation (1000 g, 4° C., 10 min) and resuspension in 27 mL PBS. This washing step was repeated four times before the RBCs were diluted to a 10% (v/v) suspension. […] Hemolytic properties of E1AM2 and pexiganan were evaluated with melittin used as a positive control, and PBS as a negative control. The plates were incubated at 37° C., for 30 min and then centrifuged (1258 g, 4° C., 6 min). 75 μL of supernatant were transferred into a flat-bottom clear 96-well plate and the OD576 nm was read. Readings of the melittin sample at 3.125 μM were normalized to 100%.

The test system of series [11] is human keratinocytes (HaCaT). Nature of the series: Cell proliferation assay, HaCaT keratinocytes. The format is cell-based. The conditions noted are these: 100 μM; cell line not named in Table 15. As for the experimental part:
as §3
CyQUANT™ Direct Cell Proliferation Assay (ThermoFisher Scientific, Catalogue) was performed as per manufacturer's instructions to determine the safety of the peptides to human keratinocytes. […] The fluorescence intensity and number of stained cells were determined using the LionHeart FX Automated Microscope (BioTek, VT, USA).

The test system of series [12] is mixed bacterial infection (PA, SA and ST). Nature of the series: Broth microdilution, mixed bacterial infection. The conditions noted are these: mixed infection. The format is cell-based. On the procedure:
Chronic wounds mostly present mixed infections where numerous pathogens colonize together.
as §5

For the next series, the system named is fibroblasts (HFF-1). Nature of the series: Cell proliferation assay, HFF-1 fibroblasts. The format is cell-based. The conditions noted are these: 24 h; certain concentrations.
A further series is described as follows: Hemolysis assay. The format is cell-based, human. The conditions noted are these: human, red blood cells; at respective MIC/MBC concentrations; melittin 3.125 μM = 100%. As for the experimental part: as §8, §9

In the case of KKLLKKWVKLSKKALKLALSL-NH2 [Q19L], in [1] (1X MBC), the “time to kill SA (in words)” value is “within minutes”. Further, the “Time kill SA, >99% killing” value in [1] is 1 min. Moreover, in series [2], the minimum inhibitory concentration (MIC) (as a rule, the smallest concentration in the dilution series that meets the test's criterion for growth inhibition) was 3.125 µM and the minimum bactericidal concentration (MBC) (usually the smallest concentration meeting the test's criterion for killing) was 3.125 µM. The “migration speed of keratinocytes” value with human keratinocytes (48 h, E1AM2 3.125-12.5 μM, Q19L 3.125-6.25 μM) is listed as “increase keratinocyte migration; also recorded: increased the migration speed of keratinocytes significantly”. In addition, in the series on human keratinocytes (only at highest concentrations (100 μM)), the “migration delay of keratinocytes” value was “significant migration delay”. In [3], this substance yielded a minimal bactericidal concentration (MBC) of 6.25 µM and an MIC of 6.25 µM. Moreover, the “development of antimicrobial resistance, PA” value in series [4] is reported as “prevented resistance acquisition”. Also, in series [5], the “anti-bacterial activity (in words)” value is “reduction in the minimum inhibitory concentration (MIC) and minimum bactericidal concentration (MBC) values”; the MIC amounted to 3.125 µM; the MBC is 3.125 µM and 6.25 µM. In addition, in series [6], the “time to kill PA (in words)” value was “within minutes” and the “Time kill PA, >99% killing” value is >1.5 min. Further, in series [7], the “development of antimicrobial resistance, SA” value is on record as “prevented resistance development”. For the same substance, in series [8], the minimum bactericidal concentration (MBC) came out at 6.25 µM and the MIC is 6.25 µM.

With “GIGKFLKKAKKFGKAFVKILKK-NH2 [Pexiganan, reference compound]”, the “Time kill SA, >99% killing” value in series [1] is listed as 1 min. Moreover, the “MIC/MBC relative to E1AM2, SA” value in series [2] is given as “two-higher value”. Further, the minimum inhibitory concentration (MIC) in series [2] was 6.25 µM and 6.12 µM; in series [2] (listed as PEX), 6.25 µM and 6.26 µM; in [3], 3.125 µM; in series [5], 3.125 µM; in series [5] (listed as PEX) it was 3.128 µM and 3.125 µM; in series [8], 3.125 µM. For the same substance, the minimum inhibitory concentration (MIC) in [12] stood at 6.25 µM. Besides, the minimum bactericidal concentration (MBC) is 12.5 µM in series [2]; 12.8 µM and 12.5 µM and 12.6 µM in [2] (listed as PEX); 6.25 µM in series [3]; 6.25 µM in series [5]; 6.25 µM and 8.25 µM in [5] (listed as PEX); 3.125 µM in [8]. Moreover, in series [12], the minimum bactericidal concentration (MBC) worked out at 12.5 µM. In series [4] (Table 15: in PA and SA, bacteria not named), the “AMR prevention / resistance induction” value is “Gives rise to AMR”. In addition, the “development of antimicrobial resistance, PA” value in series [4] was “developed resistance”. The Broad spectrum activity result in series [9] is “✓”. The Healing support entry in [9] is listed as “✓”. In addition, in series [6], the “time to kill PA (in words)” value is reported as “took the longest time to kill >99% PA”. Further, in series [6], the “Time kill PA, >99% killing” value was >5 to 15 min. Moreover, the “minimum concentration corresponding to 10% hemolysis (HC)” value in series [10] came out at 12.5 µM. Also, the “hemolysis (in words)” value in [10] is listed as “none of the peptide variants or pexiganan caused significant hemolysis”. Also, in [11], the “Cytotoxicity at high concentration (100 μM)” value is reported as “Cytotoxic”. The HFF-1 proliferation entry in the series with fibroblasts (HFF-1) was “enhanced proliferation”.

In [2], KKLLKKWLKLSKKALKLAL-NH2 [V8LQ19L C-2] showed a minimal inhibitory concentration (MIC) of 1.56 µM and a minimal bactericidal concentration (MBC) of 1.56 µM. Also, in series [5], the “anti-bacterial activity (in words)” value is “strong potency”, the minimal inhibitory concentration (MIC) came out at 1.56 µM and the MBC stood at 1.56 µM. Moreover, in [10], the “minimum concentration corresponding to 10% hemolysis (HC)” value amounted to 3.125 µM and the “hemolysis (in words)” value was “do not cause hemolysis”. Besides, the hemolysis at 0.5 h in the series “Hemolysis assay” was ~0%.
